Assay results: US7998493B2, “Cosmetic or dermopharmaceutical compositions which are used to reduce bags and circles under the eyes” (Sederma SAS, priority 2002, dated 2011)
Peptide text beside a SMILES is read from it. * marks the point of attachment. Palmitoyl = CCCCCCCCCCCCCCCC(=O)*

Tests used:
[1] = tested on: Normal human keratinocytes and fibroblasts; experiment: Cell viability by conventional MTT test; type: cell-based; conditions: maximum concentration used (45 ppm)
Experimental: Normal human keratinocytes and fibroblasts are cultured in a conventional medium in the presence or absence of various concentrations (10-45 ppm) of peptide Pal-GQPR (SEQ ID NO:2). After 24 hours the cells are rinsed in the same medium without Pal-GQPR (SEQ ID NO:2) and, after being subjected to irradiation of 35 mJ/cm^2, the same cells are returned to the culture for 48 hours, without Pal-GQPR (SEQ ID NO:2) or in its presence in the same concentrations as during the initial culture period. Cellular IL-6 is then determined using a standard ELISA test kit.
In parallel with this, to make certain that the concentration reductions observed were not due to cell mortality induced by the peptide itself, viability of the cells was verified by the conventional MTT test.

[2] = target: Converting enzyme (EC 3.4.15.1) (Homo sapiens, UniProt P12821); experiment: ACE-inhibition test (FAPGG decomposition, ΔOD at 340 nm; derived from Sigma Diagnostics method No. 305-UV); type: biochemical; conditions: for ΔOD: 340 nm, mean of five tests
Excerpt: The test is derived from Sigma Diagnostics method No. 305-UV.
Converting enzyme (EC 3.4.15.1) decomposes synthetic tripeptide FAPGG into FAP+glycylglycine. The change in optical density (ΔOD) at 340 nm is directly proportional to disappearance of the FAPGG, which allows a quantification of the converting enzyme activity.
The inhibiting effect of a compound is investigated according to the same principle, but in the presence of various concentrations of the test compounds.

[3] = target: angiotensin converting enzyme (EC 3.4.15.1); experiment: cell-based or functional assay
H-Val-Trp = tested on: T1, H-Val-Trp
T1 sequence: VW

Chain of Converting enzyme (EC 3.4.15.1) (P12821 30-1306): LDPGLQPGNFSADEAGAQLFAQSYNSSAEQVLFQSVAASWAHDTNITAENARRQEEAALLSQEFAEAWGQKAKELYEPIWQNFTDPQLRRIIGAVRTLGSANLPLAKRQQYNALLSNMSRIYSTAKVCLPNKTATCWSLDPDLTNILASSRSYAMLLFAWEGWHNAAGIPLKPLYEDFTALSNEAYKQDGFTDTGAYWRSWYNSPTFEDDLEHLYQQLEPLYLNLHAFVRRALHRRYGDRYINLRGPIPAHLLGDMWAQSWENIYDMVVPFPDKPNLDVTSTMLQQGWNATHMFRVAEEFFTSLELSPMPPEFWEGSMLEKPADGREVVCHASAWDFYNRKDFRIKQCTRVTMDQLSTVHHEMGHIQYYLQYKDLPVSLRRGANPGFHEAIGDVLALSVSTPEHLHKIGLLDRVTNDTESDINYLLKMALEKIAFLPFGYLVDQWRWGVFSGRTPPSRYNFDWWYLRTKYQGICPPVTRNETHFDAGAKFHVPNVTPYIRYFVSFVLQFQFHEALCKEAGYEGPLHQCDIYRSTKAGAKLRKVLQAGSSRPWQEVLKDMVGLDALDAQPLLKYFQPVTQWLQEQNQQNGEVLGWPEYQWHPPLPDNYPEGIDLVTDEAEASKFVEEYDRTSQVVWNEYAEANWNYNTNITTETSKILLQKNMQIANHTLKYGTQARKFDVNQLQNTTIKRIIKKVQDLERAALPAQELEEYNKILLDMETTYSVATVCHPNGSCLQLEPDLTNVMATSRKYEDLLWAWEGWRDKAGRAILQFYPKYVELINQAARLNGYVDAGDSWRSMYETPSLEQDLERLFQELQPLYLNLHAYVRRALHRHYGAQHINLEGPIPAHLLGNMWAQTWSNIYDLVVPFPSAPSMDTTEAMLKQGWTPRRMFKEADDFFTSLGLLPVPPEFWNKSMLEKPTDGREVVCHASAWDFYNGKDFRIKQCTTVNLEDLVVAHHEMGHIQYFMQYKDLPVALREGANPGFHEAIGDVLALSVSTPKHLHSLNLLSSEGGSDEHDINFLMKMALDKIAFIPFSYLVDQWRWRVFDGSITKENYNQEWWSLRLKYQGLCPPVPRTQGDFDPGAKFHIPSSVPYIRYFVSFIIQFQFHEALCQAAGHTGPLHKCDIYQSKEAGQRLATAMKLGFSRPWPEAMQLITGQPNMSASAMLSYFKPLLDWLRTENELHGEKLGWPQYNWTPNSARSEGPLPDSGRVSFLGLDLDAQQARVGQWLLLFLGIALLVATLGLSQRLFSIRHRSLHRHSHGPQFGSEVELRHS

CCCCCCCCCCCCCCCC(=O)NCC(=O)N[C@@H](CCC(N)=O)C(=O)N1CCC[C@H]1C(=O)N[C@@H](CCCNC(=N)N)C(=O)O [N-Palmitoyl-Gly-Gln-Pro-Arg] (Palmitoyl-GQPR-OH)
Cytotoxic effect (cell viability, MTT) [1]: does not exert any cytotoxic effect

H-Val-Trp
Inhibition ([2]; peptide 10 ppm): 27.3% | ΔOD ([2]; peptide 10 ppm): 0.080 | Inhibition ([2]; peptide 50 ppm): 83.4% | ΔOD ([2]; peptide 50 ppm): 0.018

H-Val-Trp (peptide)
Inhibition (converting enzyme activity, FAPGG hydrolysis, ΔOD at 340 nm), peptide at 10 ppm [3]: 27.3% | Inhibition (converting enzyme activity, FAPGG hydrolysis, ΔOD at 340 nm), peptide at 50 ppm [3]: 83.4%

angiotensin converting enzyme (EC 3.4.15.1)
ΔOD (340 nm, FAPGG hydrolysis by converting enzyme), peptide at 10 ppm (H-Val-Trp): 0.08 ΔOD | ΔOD (340 nm, FAPGG hydrolysis by converting enzyme), peptide at 50 ppm (H-Val-Trp): 0.018 ΔOD
